US20240245703A1, “TOPICAL APPLICATION OF AGENTS TO REDUCE SUN SENSITIVITY AND IMPROVE TOPICAL PHOTODYNAMIC THERAPY” (Wright State University, priority 2021, published 2024)

Key:
[1] = test system: UVB-induced MVP release; assay: MVP release in skin and plasma of wild-type and XPA KO mice after UVB or topical agonists; format: in vivo; settings: WT and XPA KO mice, 5 kJ/m^2 UVB, 500 μM imipramine topical immediately post-UVB, 4 h
Source text: The enzyme aSMase is also known to generate MVP in response to many stressors such as UVB via activation of PAFR. Yet other stimuli such as in response to a phorbol ester (TPA) are independent of the PAFR. Therefore, administration of inhibitors of aSMase may block UVB-MVP release in XPA deficient model, as well as in other situations where MVP release is independent of the PAFR.
Groups of 8-13 wild-type (C57BL/6) and XPA KO mice received no treatment (NT) or 1 KJ/m^2, 2.5 kJ/m^2, or 5 KJ/m^2 of UVB to their dorsal back skin. In some experiments, mice were treated with topical application of the PAFR agonist carbamoyl-PAF (CPAF; 50 μL of 100 μM) or the phorbol ester 12-O-tetradecanoylphorbol-13-acetate (TPA; 50 μL of 100 μM) in 90% ethanol: 10% DMSO vehicle. For the data in FIG. 2, triplicate skin biopsies were obtained and weighed four hours post-treatment, and MVP was measured. […] For the data in FIG. 3, plasma was obtained and MVP was measured four hours post-treatment. […] Data are the mean±S.E. fold change of MVP count. Groups were compared using One-Way ANOVA and Tukey's post-hoc test. Differences in samples were considered significant if the P value was less than 0.05. […]
For the data shown in FIG. 4, triplicate skin biopsies were obtained and MVP was measured. For the data shown in FIG. 5, plasma was obtained and MVP was measured. […]

[2] = test system: TNFα and IL-6 mRNA; assay: UVB-induced cytokine mRNA (qRT-PCR) in mouse skin biopsies; format: in vivo; settings: mice, topical post-UVB, skin biopsies 4 h
[3] = test system: human skin explants; assay: UVB-induced MVP formation in human skin explants ex vivo; format: cell-based; settings: 4 h
Source text: Four hours post-UVB triplicate skin biopsies were obtained and MVP quantified.

[4] = test system: human skin explants; assay: PDT-induced MVP release in human skin explants ex vivo; format: cell-based; settings: 100 μL of 5 mM added post-PDT, 4 h
Protocol: For the data shown in FIG. 14, HaCaT keratinocytes were treated with sham (no treatment), 0.1% ethanol vehicle control (VEH), 100 nM TPA, 100 nM CPAF, 1 mM 5-ALA for 4 hours, or 5-ALA followed by various fluences (2.5-20 J/cm^2) of blue light or blue light alone. Levels of MVPs released into supernatants were measured at 4 hours. […] For the data shown in FIG. 15, human skin explants were treated with sham, 100 μL vehicle (90% ethanol+10% DMSO) (VEH), 1 μM TPA, 1 µM CPAF, 1 mM 5-ALA for 4 hours, blue light or 5-ALA+blue light at 20 J/cm^2. After four hours, duplicate 6-mm punch biopsies were obtained, weighed, and MVPs were measured. The data are the mean±SE from 3-4 separate experiments conducted in duplicate. * Denotes statistically significant (P <0.05) changes from sham values.
Supernatants were collected at 4 hours and MVP measured. The data are the mean±SE MVP fold change from sham-treated values. For the data shown in FIG. 17, human skin explants were treated as in FIG. 15, with the exception that in some experiments 100 μL of 5 mM IMIP was added post-PDT. MVP were measured in duplicate 6-mm punch biopsies obtained 4 hours post-treatment.

[5] = test system: PDT-induced immunosuppression; assay: contact hypersensitivity (CHS) to DNFB after PDT, ear thickness; format: in vivo, mice; settings: wild-type mice
Source text: Five days later the mice underwent sensitization with the neoantigen DNFB. To test for local immunosuppression, DNFB was applied to the PDT-treated area. To test for systemic immunosuppression, the DNFB was applied to back skin at least 2 cm away from the PDT-treated area. Nine days later the mice underwent elicitation reactions to DNFB by application to one ear, with vehicle applied to the other ear. One day later the ear thickness was obtained as a measure of CHS reaction and compared to pre-treatment and vehicle-treated values. Some mice were treated with intraperitoneal CPAF as a positive control for systemic immunosuppression.
For the data shown in FIG. 20, wild-type mice either were injected intraperitoneally with 250 ng CPAF as a positive control for immunosuppression, underwent PDT using 10 J/cm^2 blue light, or received no treatment (SHAM). […] Five days later the mice underwent sensitization with DNFB in PDT-treated (local immunosuppression) or non-PDT-treated skin (systemic immunosuppression). Nine days later the mice underwent elicitation reactions to ears with ear thickness measured at 24 hours. For the data shown in FIG. 21, wild type and aSMase-deficient (Smpd1−/−) mice underwent treatment with CPAF or PDT followed by DNFB sensitization/elicitation reactions as in FIG. 20. The data are mean±SD values. * Denotes statistically significant (P<0.05) changes from sham treatment values using two-way ANOVA.

[6] = test system: UVB-induced erythema; assay: erythema and temperature response to low-fluence UVB on temple skin of subjects with rosacea; format: in vivo, human
Protocol: 30 minutes later, a 1 cm area of previously treated skin was irradiated with a low 300 J/m^2 UVB. Erythema was measured before UVB and at various times post-UVB irradiation in blinded fashion with a mexameter and temperature using a thermal imaging camera. […] Values represent the change in erythema from baseline for each subject at 24 hours post-UVB. […] The boxes represent the area treated with UVB. Insets into the photographs are thermal camera images of the UVB-treated skin, with white areas on the thermal imaging camera denoting increased temperature.

[7] = test system: HaCaT XPA KO; assay: UVB-induced MVP release in HaCaT XPA deficient cells; format: cell-based, human; settings: HaCaT XPA KO cell line
Protocol: HaCaT cells and HaCaT XPA deficient cells received no treatment (NT) or 1 KJ/m^2, 2.5 KJ/m^2, or 5 KJ/m^2 UVB radiation. After 4 hours, the supernatant was removed and the MVP concentration was measured. The numbers of MVP shown in FIG. 1 were normalized to cell count and NT. Data in FIG. 1 show the mean+S.E. fold change of at least three experiments. Groups were compared using One-Way ANOVA. (P<0.01) was considered statistically significant. * denotes changes between NT and UVB. #denotes changes between HaCaT and HaCaT XPA deficient cells.

[8] = test system: aSMase; settings: cited from earlier work

Compound: CN(C)CCCN1c2ccccc2CCc2ccccc21 [Imipramine]
- UVB-induced MVP in plasma [1]: blocked MVP accumulation
- UVB-induced MVP in skin [1]: blocked MVP accumulation in skin
- UVB-induced IL-6 mRNA [2]: blocks IL-6 mRNA responses
- UVB-induced TNFα mRNA [2]: blocks TNFα mRNA responses
- UVB-induced MVP formation, pre-treatment ([3]; 100 μL 500 μM applied 30 minutes before 2,500 J/m^2 UVB): blocks UVB-induced MVP formation
- UVB-induced MVP formation, post-treatment ([3]; 100 μL 500 μM applied immediately after 2,500 J/m^2 UVB): blocks UVB-induced MVP formation
- PDT-induced MVP release [4]: blocked PDT-induced MVP release
- CPAF-induced systemic immunosuppression (CHS to DNFB) ([5]; 250 ng CPAF intraperitoneal, topical imipramine): did not affect the immunosuppressive effects of CPAF
- PDT-induced local immunosuppression (CHS to DNFB) ([5]; PDT 10 J/cm^2, 100 μL of 5% imipramine topical post-PDT, DNFB on PDT-treated skin): inhibited both local and systemic immunosuppression
- PDT-induced systemic immunosuppression (CHS to DNFB) ([5]; PDT 10 J/cm^2, 100 μL of 5% imipramine topical post-PDT, DNFB on non-PDT-treated skin): inhibited both local and systemic immunosuppression
- skin temperature (thermal imaging) after UVB ([6]; one representative rosacea subject, 4% imipramine + UVB versus vehicle + UVB): less temperature signature
- erythema response to UVB ([6]; subjects with rosacea, 0.1 ml 4% imipramine 30 minutes before 300 J/m^2 UVB, 24 hours post-UVB): blocks the erythema response
- increased MVP generation of XPA deficient keratinocytes [7]: blocked by imipramine
- Residual ASM Activity ([8]; 10 micromolar, PC12 cells, incubation time 0.5 h, % of corresponding control values): 32.6%
- residual aSMase activity after treatment ([8]; from Kornhuber et al. 2008): 30.6%
